Values of other authors in patent US20220218582A1, “METHOD FOR DYEING KERATINOUS MATERIAL, COMPRISING THE USE OF AN ORGANOSILICON COMPOUND, A CHROMOPHORIC COMPOUND, A MODIFIED FATTY ACID ESTER AND A SEALING REAGENT I” (Henkel AG & Co. KGaA, priority 2019, published 2022).

Details: 25° C.

| Compound | solubility in water | solubility in water (in words) |
| --- | --- | --- |
| O=S(=O)([O-])c1ccc(N=Nc2c(O)ccc3ccccc23)cc1.[Na+] [Acid Orange 7, sodium salt of 4-[(2-hydroxy-1-naphthyl)azo]benzene sulphonate] | more than 7 g/L |  |
| Nc1cc(S(=O)(=O)[O-])cc2cc(S(=O)(=O)[O-])c(N=Nc3ccccc3)c(O)c12.[Na+].[Na+] [Acid Red 33, disodium salt of 5-amino-4-hydroxy-3-(phenylazo)-naphthalene-2,7-disulphonate] | 2.5 mg/mL |  |
| O=C([O-])c1c(Cl)c(Cl)c(Cl)c(Cl)c1-c1c2c(Br)cc(=O)c(Br)c-2oc2c(Br)c(O)cc(Br)c12.O=C([O-])c1c(Cl)c(Cl)c(Cl)c(Cl)c1-c1c2c(Br)cc(=O)c(Br)c-2oc2c(Br)c(O)cc(Br)c12.[Na+].[Na+] [Acid Red 92, disodium salt of 3,4,5,6-tetrachloro-2-(1,4,5,8-tetrabromo-6-hydroxy-3-oxoxanthen-9-yl)benzoic acid] | greater than 10 g/L |  |
| O=C([O-])C1=NN(c2ccc(S(=O)(=O)[O-])cc2)C(=O)C1N=Nc1ccc(S(=O)(=O)[O-])cc1.[Na+].[Na+].[Na+] (centres unmarked) [Acid Yellow 23, trisodium salt of 4,5-dihydro-5-oxo-1-(4-sulfophenyl)-4-((4-sulfophenyl)azo)-1H-pyrazole-3-carboxylic acid] |  | highly soluble |
| mixture of the sodium salts of mono- and disulfonic acids of 2-(2-quinolyl)-1H-indene-1,3(2H)-dione [Acid Yellow 3] | 20 mg/mL |  |
